Assay results: patent US20230312528A1, “2-OXO-IMIDAZOLIDINE-4-CARBOXAMIDES AS NAV1.8 INHIBITORS” (Merck Sharp & Dohme LLC, priority 2020, published 2023)

Target: human NaV1.8 (Homo sapiens (Human), UniProt Q9Y5Y9)
Experiment: Nav1.8 Qube automated patch-clamp assay
Type: cell-based
Details: human NaV1.8 stably expressed in HEK 293 cells; automated 384-well patch-clamp; resting or inactivated state not specified
In short: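 Human NaV1.8 in HEK293 cells, automated whole-cell patch clamp at room temperature: 1 Hz train of ten 20 ms pulses to 10 mV from −90 mV, repolarization to −67 mV. First- and tenth-pulse peak currents gave resting and inactivated-state IC50 values via Hill fits.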

Sequence of human NaV1.8 (Q9Y5Y9 whole entry): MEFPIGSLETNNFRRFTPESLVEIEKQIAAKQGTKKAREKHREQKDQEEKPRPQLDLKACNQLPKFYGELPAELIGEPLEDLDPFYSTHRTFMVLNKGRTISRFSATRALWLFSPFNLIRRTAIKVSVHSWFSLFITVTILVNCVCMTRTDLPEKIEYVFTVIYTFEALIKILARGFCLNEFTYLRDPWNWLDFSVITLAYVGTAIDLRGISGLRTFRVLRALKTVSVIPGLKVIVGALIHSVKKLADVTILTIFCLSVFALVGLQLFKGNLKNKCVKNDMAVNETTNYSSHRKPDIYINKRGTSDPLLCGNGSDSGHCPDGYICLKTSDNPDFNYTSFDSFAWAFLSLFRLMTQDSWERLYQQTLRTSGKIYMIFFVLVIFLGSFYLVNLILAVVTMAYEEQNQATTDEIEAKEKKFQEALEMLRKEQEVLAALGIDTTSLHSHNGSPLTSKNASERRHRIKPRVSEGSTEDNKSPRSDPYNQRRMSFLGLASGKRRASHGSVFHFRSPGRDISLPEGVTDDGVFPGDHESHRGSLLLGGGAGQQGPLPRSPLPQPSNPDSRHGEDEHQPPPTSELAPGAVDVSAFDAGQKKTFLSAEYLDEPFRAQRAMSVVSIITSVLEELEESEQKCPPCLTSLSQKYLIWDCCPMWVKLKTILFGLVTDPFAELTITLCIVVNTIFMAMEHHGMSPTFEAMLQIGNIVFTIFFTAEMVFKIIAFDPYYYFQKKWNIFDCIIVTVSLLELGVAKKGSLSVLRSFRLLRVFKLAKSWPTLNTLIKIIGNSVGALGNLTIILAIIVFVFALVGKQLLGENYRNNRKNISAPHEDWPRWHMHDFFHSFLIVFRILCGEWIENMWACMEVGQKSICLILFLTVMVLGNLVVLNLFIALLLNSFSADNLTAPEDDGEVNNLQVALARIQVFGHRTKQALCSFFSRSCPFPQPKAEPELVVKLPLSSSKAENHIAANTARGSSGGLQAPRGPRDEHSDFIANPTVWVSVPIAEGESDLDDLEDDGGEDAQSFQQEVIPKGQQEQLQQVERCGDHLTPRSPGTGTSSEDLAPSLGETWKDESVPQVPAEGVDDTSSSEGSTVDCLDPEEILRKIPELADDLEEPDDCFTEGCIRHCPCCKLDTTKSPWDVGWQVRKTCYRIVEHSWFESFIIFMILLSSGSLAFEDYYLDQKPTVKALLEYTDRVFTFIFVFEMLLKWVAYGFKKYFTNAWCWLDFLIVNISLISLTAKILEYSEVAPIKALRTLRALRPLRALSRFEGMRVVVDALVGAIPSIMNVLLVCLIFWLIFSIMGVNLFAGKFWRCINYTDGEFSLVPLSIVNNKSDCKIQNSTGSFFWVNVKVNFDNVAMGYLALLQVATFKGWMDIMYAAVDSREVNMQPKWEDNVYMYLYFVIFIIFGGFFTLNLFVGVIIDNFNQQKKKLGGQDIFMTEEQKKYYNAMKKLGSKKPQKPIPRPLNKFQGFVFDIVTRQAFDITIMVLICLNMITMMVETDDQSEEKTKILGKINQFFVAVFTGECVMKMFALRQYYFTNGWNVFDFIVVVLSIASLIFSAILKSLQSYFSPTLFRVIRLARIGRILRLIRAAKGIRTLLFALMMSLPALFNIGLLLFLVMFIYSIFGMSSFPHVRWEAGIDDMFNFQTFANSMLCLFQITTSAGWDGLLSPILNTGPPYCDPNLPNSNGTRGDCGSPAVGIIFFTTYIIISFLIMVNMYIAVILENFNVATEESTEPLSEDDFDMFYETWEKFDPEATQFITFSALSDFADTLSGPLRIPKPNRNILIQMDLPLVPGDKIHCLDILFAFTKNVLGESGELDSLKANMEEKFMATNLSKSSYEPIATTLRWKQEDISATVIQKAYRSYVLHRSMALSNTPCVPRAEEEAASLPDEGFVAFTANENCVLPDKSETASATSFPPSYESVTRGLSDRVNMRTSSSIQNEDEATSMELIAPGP

In the case of `N#Cc1ccc(C(NC(=O)[C@@H]2CNC(=O)N2)c2ccc(F)c(Cl)c2)nc1` (stereo partly drawn) [Example 86, (4S)-N-[(3-chloro-4-fluorophenyl)(5-cyanopyridin-2-yl)methyl]-2-oxoimidazolidine-4-carboxamide], the IC50 is reported as 320 nM.
